In patent US10730872B2, “Pesticidally active heterocyclic derivatives with sulphur containing sustitutents” (SYNGENTA PARTICIPATIONS AG, priority 2015, dated 2020):

How the values were obtained:
Format in all cases: in vivo
Plutella xylostella = Plutella xylostella (Diamond Back Moth); details: 120 h, application rate of 200 ppm, artificial diet, L2 larvae, 5 days after infestation, read-out: effect in at least one of the two categories (mortality or growth inhibition)
Protocol: 24-well microtiter plates with artificial diet were treated with aqueous test solutions prepared from 10,000 ppm DMSO stock solutions by pipetting. After drying, the plates were infested with L2 larvae (10 to 15 per well). The samples were assessed for mortality and growth inhibition in comparison to untreated samples 5 days after infestation.

Euschistus heros = Euschistus heros (Neotropical Brown Stink Bug); details: 120 h, application rate of 200 ppm, sprayed soybean leaves, N2 nymphs, 5 days after infestation, read-out: effect in at least one of the two categories (mortality or growth inhibition)
Protocol: Soybean leaves on agar in 24-well microtiter plates were sprayed with aqueous test solutions prepared from 10,000 ppm DMSO stock solutions. After drying the leaves were infested with N2 nymphs. The samples were assessed for mortality and growth inhibition in comparison to untreated samples 5 days after infestation.

Spodoptera littoralis [1] = assay: Spodoptera littoralis (Egyptian Cotton Leaf Worm), sprayed cotton leaf discs; details: foliar, 72 h, application rate of 200 ppm, L1 larvae, 3 days after infestation
Protocol: Cotton leaf discs were placed onto agar in 24-well microtiter plates and sprayed with aqueous test solutions prepared from 10,000 ppm DMSO stock solutions. After drying the leaf discs were infested with five L1 larvae. The samples were assessed for mortality, anti-feeding effect, and growth inhibition in comparison to untreated samples 3 days after infestation. Control of Spodoptera littoralis by a test sample is given when at least one of the categories mortality, anti-feedant effect, and growth inhibition is higher than the untreated sample.

Bemisia tabaci = Bemisia tabaci (Cotton White Fly): Feeding/Contact Activity; details: foliar, 144 h, application rate of 200 ppm, sprayed cotton leaf discs, adult white flies, 6 days after incubation
Protocol: Cotton leaf discs were placed on agar in 24-well microtiter plates and sprayed with aqueous test solutions prepared from 10,000 ppm DMSO stock solutions. After drying the leaf discs were infested with adult white flies. The samples were checked for mortality 6 days after incubation.

Spodoptera littoralis [2] = assay: Spodoptera littoralis (Egyptian Cotton Leaf Worm), uptake by lettuce roots from agar; details: 144 h, test rate of 12.5 ppm, mixed with agar, absorbed by lettuce roots, Spodoptera eggs, 6 days after infestation, read-out: effect in at least one of the three categories (mortality, anti-feeding, or growth inhibition)
Source text: Test compounds were applied by pipette from 10,000 ppm DMSO stock solutions into 24-well plates and mixed with agar. Lettuce seeds were placed onto the agar and the multi well plate was closed by another plate which contained also agar. After 7 days the compound was absorbed by the roots and the lettuce grew into the lid plate. The lettuce leaves were then cut off into the lid plate. Spodoptera eggs were pipetted through a plastic stencil onto a humid gel blotting paper and the lid plate was closed with it. The samples were assessed for mortality, anti-feedant effect and growth inhibition in comparison to untreated samples 6 days after infestation.

Myzus persicae [3] = assay: Myzus persicae (Green Peach Aphid). Systemic Activity; details: 144 h, test rate of 24 ppm, roots of infested pea seedlings in test solution, 6 days
Protocol: Roots of pea seedlings infested with an aphid population of mixed ages were placed directly into aqueous test solutions prepared from 10,000 DMSO stock solutions. The samples were assessed for mortality 6 days after placing seedlings into test solutions.

Myzus persicae [4] = assay: Myzus persicae (Green Peach Aphid): Feeding/Contact Activity; details: foliar, 144 h, application rate of 200 ppm, sprayed sunflower leaf discs, aphid population of mixed ages, 6 days after infestation
Protocol: Sunflower leaf discs were placed onto agar in a 24-well microtiter plate and sprayed with aqueous test solutions prepared from 10,000 ppm DMSO stock solutions. After drying, the leaf discs were infested with an aphid population of mixed ages. The samples were assessed for mortality 6 days after infestation.

Diabrotica balteata = Diabrotica balteata (Corn Root Worm); details: 96 h, application rate of 200 ppm, sprayed maize sprouts, L2 larvae, 4 days after infestation, read-out: effect in at least one of the two categories (mortality or growth inhibition)
Protocol: Maize sprouts placed onto an agar layer in 24-well microtiter plates were treated with aqueous test solutions prepared from 10,000 ppm DMSO stock solutions by spraying. After drying, the plates were infested with L2 larvae (6 to 10 per well). The samples were assessed for mortality and growth inhibition in comparison to untreated samples 4 days after infestation.

Tetranychus urticae = Tetranychus urticae (Two-Spotted Spider Mite): Feeding/Contact Activity; details: foliar, 192 h, application rate of 200 ppm, sprayed bean leaf discs, mixed population (mobile stages), 8 days after infestation
Protocol: Bean leaf discs on agar in 24-well microtiter plates were sprayed with aqueous test solutions prepared from 10,000 ppm DMSO stock solutions. After drying the leaf discs were infested with a mite population of mixed ages. The samples were assessed for mortality on mixed population (mobile stages) 8 days after infestation.

CCn1c(C(F)(F)F)cc2nc(-c3nc(C(=O)NC4CC4)ccc3S(=O)(=O)CC)n(C)c2c1=O [Compound A20, N-cyclopropyl-6-[5-ethyl-3-methyl-4-oxo-6-(trifluoromethyl)imidazo[4,5-c]pyridin-2-yl]-5-ethylsulfonyl-pyridine-2-carboxamide]
≥ 80%: percent effect (mortality or growth inhibition) at 200 ppm (Plutella xylostella) | percent effect (mortality or growth inhibition) at 200 ppm (Euschistus heros) | percent control (mortality, anti-feeding effect or growth inhibition) at 200 ppm (Spodoptera littoralis [1]) | mortality at 200 ppm (Bemisia tabaci) | percent effect (mortality, anti-feeding or growth inhibition) at 12.5 ppm (Spodoptera littoralis [2]) | mortality at 24 ppm (Myzus persicae [3]) | mortality at 200 ppm (Myzus persicae [4])

CCn1c(C(F)(F)F)cc2nc(-c3nc(N(C(=O)C4CC4)C(=O)C4CC4)c(Cl)cc3S(=O)(=O)CC)n(C)c2c1=O [Compound A40, N-[3-chloro-6-[5-ethyl-3-methyl-4-oxo-6-(trifluoromethyl)imidazo[4,5-c]pyridin-2-yl]-5-ethylsulfonyl-2-pyridyl]-N-(cyclopropanecarbonyl)cyclopropanecarboxamide]
≥ 80%: effect mortality or growth inhibition at 200 ppm (Diabrotica balteata) | percent effect (mortality or growth inhibition) at 200 ppm (Plutella xylostella) | percent effect (mortality or growth inhibition) at 200 ppm (Euschistus heros) | percent control (mortality, anti-feeding effect or growth inhibition) at 200 ppm (Spodoptera littoralis [1]) | mortality at 200 ppm (Bemisia tabaci) | percent effect (mortality, anti-feeding or growth inhibition) at 12.5 ppm (Spodoptera littoralis [2]) | mortality at 200 ppm (Myzus persicae [4])

CCn1c(C(F)(F)F)cc2nc(-c3nc(NC4CC4)c(Cl)cc3S(=O)(=O)CC)n(C)c2c1=O [Compound A31, 2-[5-chloro-6-(cyclopropylamino)-3-ethylsulfonyl-2-pyridyl]-5-ethyl-3-methyl-6-(trifluoromethyl)imidazo[4,5-c]pyridin-4-one]
≥ 80%: effect mortality or growth inhibition at 200 ppm (Diabrotica balteata) | percent effect (mortality or growth inhibition) at 200 ppm (Plutella xylostella) | percent effect (mortality or growth inhibition) at 200 ppm (Euschistus heros) | percent control (mortality, anti-feeding effect or growth inhibition) at 200 ppm (Spodoptera littoralis [1]) | mortality at 200 ppm (Bemisia tabaci) | percent effect (mortality, anti-feeding or growth inhibition) at 12.5 ppm (Spodoptera littoralis [2])

CCn1c(C(F)(F)F)cc2nc(-c3nc(NCC(F)(F)F)ccc3S(=O)(=O)CC)n(C)c2c1=O [Compound A34, 5-ethyl-2-[3-ethylsulfonyl-6-(2,2,2-trifluoroethylamino)-2-pyridyl]-3-methyl-6-(trifluoromethyl)imidazo[4,5-c]pyridin-4-one]
≥ 80%: effect mortality or growth inhibition at 200 ppm (Diabrotica balteata) | percent effect (mortality or growth inhibition) at 200 ppm (Plutella xylostella) | percent control (mortality, anti-feeding effect or growth inhibition) at 200 ppm (Spodoptera littoralis [1]) | mortality at 200 ppm (Tetranychus urticae)

CCS(=O)(=O)c1ccc(NN)nc1-c1nc2cc(C(F)(F)F)n(C3CC3)c(=O)c2n1C [Compound A45, 5-cyclopropyl-2-(3-ethylsulfonyl-6-hydrazino-2-pyridyl)-3-methyl-6-(trifluoromethyl)imidazo[4,5-c]pyridin-4-one]
≥ 80%: effect mortality or growth inhibition at 200 ppm (Diabrotica balteata) | percent effect (mortality or growth inhibition) at 200 ppm (Plutella xylostella) | percent control (mortality, anti-feeding effect or growth inhibition) at 200 ppm (Spodoptera littoralis [1]) | percent effect (mortality, anti-feeding or growth inhibition) at 12.5 ppm (Spodoptera littoralis [2]) | mortality at 24 ppm (Myzus persicae [3]) | mortality at 200 ppm (Myzus persicae [4])

CCn1c(C(F)(F)F)cc2nc(-c3nc(C(=O)O)ccc3S(=O)(=O)CC)n(C)c2c1=O [Compound A4, 6-[5-ethyl-3-methyl-4-oxo-6-(trifluoromethyl)imidazo[4,5-c]pyridin-2-yl]-5-ethylsulfonyl-pyridine-2-carboxylic acid]
≥ 80%: mortality at 200 ppm (Tetranychus urticae)

CCn1c(C(F)(F)F)cc2nc(-c3nc(N(CC(F)(F)F)C(=O)C4CC4)ccc3S(=O)(=O)CC)n(C)c2c1=O [Compound A32, N-[6-[5-ethyl-3-methyl-4-oxo-6-(trifluoromethyl)imidazo[4,5-c]pyridin-2-yl]-5-ethylsulfonyl-2-pyridyl]-N-(2,2,2-trifluoroethyl)cyclopropanecarboxamide]
≥ 80%: effect mortality or growth inhibition at 200 ppm (Diabrotica balteata) | percent effect (mortality or growth inhibition) at 200 ppm (Plutella xylostella) | percent control (mortality, anti-feeding effect or growth inhibition) at 200 ppm (Spodoptera littoralis [1]) | mortality at 200 ppm (Tetranychus urticae)

CCn1c(C(F)(F)F)cc2nc(-c3ncc(N(C)C(=O)C4CC4)cc3S(=O)(=O)CC)n(C)c2c1=O [Compound A9, N-[6-[5-ethyl-3-methyl-4-oxo-6-(trifluoromethyl)imidazo[4,5-c]pyridin-2-yl]-5-ethylsulfonyl-3-pyridyl]-N-methyl-cyclopropanecarboxamide]
≥ 80%: percent effect (mortality or growth inhibition) at 200 ppm (Plutella xylostella) | percent effect (mortality or growth inhibition) at 200 ppm (Euschistus heros) | percent control (mortality, anti-feeding effect or growth inhibition) at 200 ppm (Spodoptera littoralis [1]) | mortality at 200 ppm (Bemisia tabaci) | percent effect (mortality, anti-feeding or growth inhibition) at 12.5 ppm (Spodoptera littoralis [2]) | mortality at 24 ppm (Myzus persicae [3]) | mortality at 200 ppm (Myzus persicae [4])

CCS(=O)(=O)c1ccc(NC)nc1-c1nc2cc(C(F)(F)F)n(C3CC3)c(=O)c2n1C [Compound A51, 5-cyclopropyl-2-[3-ethylsulfonyl-6-(methylamino)-2-pyridyl]-3-methyl-6-(trifluoromethyl)imidazo[4,5-c]pyridin-4-one]
≥ 80%: effect mortality or growth inhibition at 200 ppm (Diabrotica balteata) | percent effect (mortality or growth inhibition) at 200 ppm (Plutella xylostella) | percent effect (mortality or growth inhibition) at 200 ppm (Euschistus heros) | percent control (mortality, anti-feeding effect or growth inhibition) at 200 ppm (Spodoptera littoralis [1]) | mortality at 200 ppm (Bemisia tabaci) | percent effect (mortality, anti-feeding or growth inhibition) at 12.5 ppm (Spodoptera littoralis [2]) | mortality at 24 ppm (Myzus persicae [3]) | mortality at 200 ppm (Myzus persicae [4])

CCn1c(C(F)(F)F)cc2nc(-c3ncc(N(C)N)cc3S(=O)(=O)CC)n(C)c2c1=O [Compound A56, 2-[5-[amino(methyl)amino]-3-ethylsulfonyl-2-pyridyl]-5-ethyl-3-methyl-6-(trifluoromethyl)imidazo[4,5-c]pyridin-4-one]
≥ 80%: effect mortality or growth inhibition at 200 ppm (Diabrotica balteata) | percent effect (mortality or growth inhibition) at 200 ppm (Plutella xylostella) | percent effect (mortality or growth inhibition) at 200 ppm (Euschistus heros) | percent control (mortality, anti-feeding effect or growth inhibition) at 200 ppm (Spodoptera littoralis [1]) | percent effect (mortality, anti-feeding or growth inhibition) at 12.5 ppm (Spodoptera littoralis [2]) | mortality at 200 ppm (Myzus persicae [4])

CCn1c(C(F)(F)F)cc2nc(-c3nc(NC(=O)C4CC4)c(Cl)cc3S(=O)(=O)CC)n(C)c2c1=O [Compound A41, N-[3-chloro-6-[5-ethyl-3-methyl-4-oxo-6-(trifluoromethyl)imidazo[4,5-c]pyridin-2-yl]-5-ethylsulfonyl-2-pyridyl]cyclopropanecarboxamide]
≥ 80%: effect mortality or growth inhibition at 200 ppm (Diabrotica balteata) | percent effect (mortality or growth inhibition) at 200 ppm (Plutella xylostella) | percent effect (mortality or growth inhibition) at 200 ppm (Euschistus heros) | percent control (mortality, anti-feeding effect or growth inhibition) at 200 ppm (Spodoptera littoralis [1]) | percent effect (mortality, anti-feeding or growth inhibition) at 12.5 ppm (Spodoptera littoralis [2]) | mortality at 200 ppm (Myzus persicae [4])
